For nine molecules, GI50 and TGI results are on record in PubChem BioAssay (NCI).

Values joined by “and” are separate entries in the source; they are usually repeats but may differ in a detail not shown here. Equal entries are not always repeated.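 How tested: cells in 96-well plates exposed to compound for 48 hours at five concentrations. GI50: concentration for 50% inhibition of growth. TGI marks complete inhibition of growth.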

Common to all, as to assay: DTP human tumour cell line panel, 48 h
The subject of assay [1] is SK-MEL-2 melanoma.
For assay [2], the system named is CCRF-CEM leukemia.
Assay [3] has as its system COLO 205 colon.
In assay [4] the test system is MDA-MB-231 breast.
Assay [5] concerns HT29 colon.
The subject of assay [6] is U251 CNS.
Assay [7] deals with OVCAR-3 ovarian.
The subject of assay [8] is SNB-75 CNS.
Assay [9] concerns SF-295 CNS.
Assay [10] concerns SF-539 CNS.

The term GI50 denotes the concentration giving 50% growth inhibition. Usually TGI stands for the concentration at which net growth stops. The low end stands for more potent growth arrest, the high end for less potent growth arrest. With `CC(=O)OC1OC([C@H]2c3cccc(O)c3C(=O)c3c(O)cc(C)cc32)C(O)C(O)C1O` (stereo not given in full), the GI50 in [1] was 0.0962 µM; in [2] it was 0.444 µM; in assay [3], 0.0421 µM; in assay [4], 0.0188 µM; in assay [5], 0.116 µM; in [6], less than 0.0164 µM. For the same molecule, the GI50 is 0.029 µM in assay [7], 0.0297 µM in assay [8], 0.0817 µM in assay [9] and 0.121 µM in [10]. Also, the TGI in assay [1] is 2.63 µM; in assay [2], 2.25 µM; in [4], 0.0671 µM; in [5], more than 100 µM; in assay [6] it was 0.244 µM; in assay [7], 0.0885 µM. Besides, the TGI in assay [8] was found to be 2.74 µM; in assay [9] it was 0.239 µM; in assay [10], 7.08 µM.
Regarding `CN(C)Cc1cc(C(F)(F)F)ccc1C(O)(c1ccccc1)c1ccccc1`, the TGI in assay [1] amounted to 41 µM; in [2] it was 28.9 µM; in assay [3] it was 20.8 µM; in [4], 24.8 µM; in [5] it was 21.6 µM; in assay [6], 24.9 µM. Further, the concentration for total growth inhibition (TGI) is more than 100 µM in [7], 21.8 µM in assay [8], 50 µM in assay [9] and 32.7 µM in assay [10].
For the molecule `NCCCNCCS`, the TGI is more than 100 µM in assay [1]; > 100 µM and 72.3 µM in [2]; more than 100 µM in assay [3]; more than 100 µM in [4]; more than 100 µM in [5]; more than 100 µM in [6]. The TGI in [7], in assay [8], in assay [9] and in [10] was more than 100 µM in each case. For the same molecule, the GI50 was > 100 µM and 21.8 µM in assay [2]; > 100 µM and 46.9 µM in assay [3].
As to `CN(C)CCC(=O)N1C/C(=C\c2ccc(Cl)c(Cl)c2)C(=O)/C(=C/c2ccc(Cl)c(Cl)c2)C1`, the TGI in assay [1] was 3.34 µM; in assay [2] it was 0.738 µM; in assay [3], 0.636 µM; in assay [4], 0.799 µM; in assay [5], 0.495 µM; in assay [6] it was 0.437 µM. The TGI in [7] was 0.93 µM; in assay [8], 1.3 µM; in [9] it was 0.824 µM; in assay [10] it was 0.832 µM.
For `CCN(CC)CCNC(Cc1ccccc1)c1ccc(OCc2ccccc2)cc1` (stereo not given), the GI50 is 3.42 µM in assay [1]; 3.19 µM in [2]; 1.79 µM in [3]; 1.92 µM in [4]; 2.44 µM in assay [5]; 3.41 µM in assay [6]. Further, the GI50 in [7] was 11.8 µM; in [8], 4.29 µM; in assay [9] it was 2.04 µM; in assay [10], 5.26 µM. Besides, the TGI was 9.74 µM in assay [1]; 13.7 µM in assay [2]; 3.4 µM in assay [3]; 6.65 µM in [4]; 11.8 µM in [5]; 15.3 µM in assay [6]. The TGI was 25.8 µM in assay [7], 18 µM in assay [8], 4.57 µM in [9] and 18.6 µM in [10].
On to `O=C1C=CC(=O)C2C1C1(Cl)C(Cl)=C(Cl)C2(Cl)C1(Cl)Cl` (stereo not given), for which the GI50 was 3.18 µM in assay [1]; 3.76 µM in [2]; 11.5 µM in [3]; 3.62 µM in assay [4]; 7.54 µM in [5]; 5.76 µM in [6]. Moreover, the GI50 in assay [7] was 2.03 µM; in [8], 1.13 µM; in [9], 1.91 µM; in assay [10], 6.46 µM. The TGI in assay [1] was 8.99 µM; in assay [2], more than 100 µM; in assay [3] it was 27.2 µM; in assay [4], 16.4 µM; in assay [5] it was 23.9 µM; in assay [6] it was 19.1 µM. Besides, the TGI in assay [7] was determined as 5.08 µM; in assay [8], 5.48 µM; in assay [9], 6.62 µM; in assay [10], 23.2 µM.
In the case of `CC(C)(C)c1cc([N+](=O)[O-])cc([N+](=O)[O-])c1O`, the TGI in [1], in assay [2], in assay [3], in [4], in assay [5] and in assay [6] was more than 10 µM in each case. The TGI in assay [7], in assay [8], in assay [9] and in assay [10] was more than 10 µM each time.
For `Cc1ccc(C2=C(c3ccc(C)cc3)C3(c4ccc(C)cc4)C4C(=O)OC(=O)C4C2(c2ccc(C)cc2)S3=O)cc1` (stereo not given), the GI50 in assay [1] was 16.2 µM; in assay [2], 25.2 µM; in assay [3], 51.2 µM; in assay [4] it was 15.6 µM; in [5] it was 25.3 µM; in assay [6], 6.31 µM. Further, the GI50 is 15.5 µM in assay [7], 15.3 µM in assay [8], 13.1 µM in [9] and 6.3 µM in assay [10]. In addition, the TGI is 78.8 µM in assay [1]; more than 100 µM in [2]; more than 100 µM in [3]; 45.6 µM in [4]; more than 100 µM in assay [5]; 24.9 µM in assay [6]. The TGI in assay [7] came to 39.4 µM; in assay [8] it was 36.8 µM; in assay [9], 37.7 µM; in assay [10], 31.9 µM.
For the molecule `COc1cccc2c1C(=N)c1c(O)c3c(c(O)c1C2=O)C[C@@](O)(C(C)=O)C[C@@H]3O[C@H]1C[C@H](N)[C@H](O)[C@H](C)O1`, the GI50 is 2.28 µM in [1]; 0.0829 µM in [2]; 1.26 µM in assay [4]; 0.316 µM in assay [5]; 0.144 µM in [6]; 1.13 µM in assay [7]. Moreover, the GI50 is 0.159 µM in [8], 0.219 µM in assay [9] and 0.174 µM in [10]. Besides, the TGI was 4.95 µM in [1]; 3.76 µM in [2]; 3.16 µM in [3]; 7.74 µM in assay [4]; 2.09 µM in assay [5]; 2.14 µM in [6]. Also, the TGI in assay [7] was found to be 7.11 µM; in [8] it was 2.08 µM; in assay [9] it was 1.27 µM; in assay [10], 1.48 µM.
